Measured values reported in patent US9833497B2, “Human originated EGF domain proteins and use of the same” (CHENGDU SOURCEBIO LIMITED-LIABILITY COMPANY, priority 2013, dated 2017).

Assays:
Assay type in all cases: cell-based
E. coli DH5α = assay: Antibacterial activity: MIC and growth curve against E. coli DH5α in 96-well plate; conditions: minimal inhibitory concentration against E. coli DH5α; 96-well plate, 5×10^5 CFU/mL, 37° C., judged after 8 h
Method in brief: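 Log-phase bacteria (OD600 ~0.5) resuspended in LB at 5×10^5 CFU/mL, exposed to recombinant protein at 50, 25, 12.5 μg/mL final in triplicate, 37 °C shaking at 175 rpm. OD600 read every 30 min; MIC is lowest concentration showing no growth.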

E. coli BL21 = assay: MIC against Gram-negative bacteria: E. coli BL21; conditions: E. coli BL21; 10 h cultivation at 37° C.
Method in brief: (§1)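 Two-fold serial dilutions of each purified human EGF domain protein, three replicate wells per level, were combined with bacteria at a final 5×10^5 CFU/mL in LB. Cultures were shaken at 175 rpm, 37° C. The MIC was taken as the minimum concentration preventing growth.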

Pseudomonas aeruginosa = assay: MIC against Gram-negative bacteria: Pseudomonas aeruginosa; conditions: P. aeruginosa; 10 h cultivation at 37° C.
Method in brief: as §1

Klebsiella pneumonia = assay: MIC against Gram-negative bacteria: Klebsiella pneumonia; conditions: K. pneumonia; 10 h cultivation at 37° C.
Method in brief: as §1

Enterobacter cloacae = assay: MIC against Gram-negative bacteria: Enterobacter cloacae; conditions: E. cloacae; 10 h cultivation at 37° C.
Method in brief: as §1

Aeromonas hydrophila = assay: MIC against Gram-negative bacteria: Aeromonas hydrophila; conditions: A. hydrophila; 10 h cultivation at 37° C.
Method in brief: as §1

Citrobacter diversus = assay: MIC against Gram-negative bacteria: Citrobacter diversus; conditions: C. diversus; 10 h cultivation at 37° C.
Method in brief: as §1

Moraxella catarrhalis = assay: MIC against Gram-negative bacteria: Moraxella catarrhalis; conditions: M. catarrhalis; 10 h cultivation at 37° C.
Method in brief: as §1

Proteus mirabilis = assay: MIC against Gram-negative bacteria: Proteus mirabilis; conditions: P. mirabilis; 10 h cultivation at 37° C.
Method in brief: as §1

Proteus vulgaris = assay: MIC against Gram-negative bacteria: Proteus vulgaris; conditions: P. vulgaris; 10 h cultivation at 37° C.
Method in brief: as §1

Serratia marcescens = assay: MIC against Gram-negative bacteria: Serratia marcescens; conditions: S. marcescens; 10 h cultivation at 37° C.
Method in brief: as §1

Row | Substance | MIC (E. coli DH5α) [µg/mL] | MIC (E. coli BL21) [µg/mL] | MIC (Pseudomonas aeruginosa) [µg/mL] | MIC (Klebsiella pneumonia) [µg/mL] | MIC (Enterobacter cloacae) [µg/mL] | MIC (Aeromonas hydrophila) [µg/mL] | MIC (Citrobacter diversus) [µg/mL] | MIC (Moraxella catarrhalis) [µg/mL] | MIC (Proteus mirabilis) [µg/mL] | MIC (Proteus vulgaris) [µg/mL] | MIC (Serratia marcescens) [µg/mL]
1 | PRT900 (VLAPCAPSPCRNGGECRQSEDYESFSCVCPTGWQGQTCE; listed as Homo sapiens) | 12.5 | 25 | 12.5 | 12.5 | 12.5 | 12.5 | 12.5 | 25 | 12.5 | 25 | 50
2 | PRT901 (DINECVLSPCRHGASCQNTHGGYRCHCQAGYSGRNCE; listed as Homo sapiens) | 25 | 25 | 12.5 | 50 | 25 | 12.5 | 25 | 50 | 25 | 12.5 | 25
3 | PRT902 (DIDDCRPNPCHNGGSCTDGINTAFCDCLPGFRGTFCE; listed as Homo sapiens) | 50 | 25 | 12.5 | 25 | 50 | 12.5 | 50 | 25 | 12.5 | 25 | 50
4 | PRT903 (DINECASDPCRNGANCTDCVDSYTCTCPAGFSGIHCE; listed as Homo sapiens) | 12.5 | 50 | 12.5 | 25 | 50 | 12.5 | 50 | 12.5 | 25 | 50 | 12.5
5 | PRT904 (NTPDCTESSCFNGGTCVDGINSFTCLCPPGFTGSYCQ; listed as Homo sapiens) | 50 | 12.5 | 25 | 12.5 | 12.5 | 25 | 12.5 | 25 | 12.5 | 25 | 25
6 | PRT905 (DVNECDSQPCLHGGTCQDGCGSYRCTCPQGYTGPNCQ; listed as Homo sapiens) | 25 | 50 | 12.5 | 25 | 50 | 12.5 | 50 | 25 | 12.5 | 50 | 12.5
7 | PRT906 (LVHWCDSSPCKNGGKCWQTHTQYRCECPSGWTGLYCD; listed as Homo sapiens) | 50 | 25 | 12.5 | 25 | 50 | 12.5 | 25 | 50 | 25 | 12.5 | 25
8 | PRT907 (PSVSCEVAAQRQGVDVARLCQHGGLCVDAGNTHHCRCQAGYTGSYCE; listed as Homo sapiens) | 25 | 12.5 | 12.5 | 25 | 12.5 | 12.5 | 12.5 | 12.5 | 25 | 25 | 12.5
9 | PRT908 (LDNACLTNPCRNGGTCDLLTLTEYKCRCPPGWSGKSCQ; listed as Homo sapiens) | 50 | 12.5 | 25 | 50 | 100 | 25 | 50 | 12.5 | 25 | 25 | 25
10 | PRT909 (LVDECSPSPCQNGATCTDYLGGYSCKCVAGYHGVNCS; listed as Homo sapiens) | 50 | 25 | 12.5 | 50 | 25 | 12.5 | 50 | 25 | 12.5 | 50 | 12.5
11 | PRT910 (EIDECLSHPCQNGGTCLDLPNTYKCSCPRGTQGVHCE; listed as Homo sapiens) | 50 | 25 | 12.5 | 25 | 50 | 12.5 | 25 | 12.5 | 25 | 25 | 25
12 | PRT912 (DVNECLSNPCDARGTQNCVQRVNDFHCECRAGHTGRRCE; listed as Homo sapiens) | 25 | 12.5 | 25 | 50 | 25 | 100 | 50 | 12.5 | 50 | 100 | 50
13 | PRT913 (VINGCKGKPCKNGGTCAVASNTARGFICKCPAGFEGATCE; listed as Homo sapiens) | 12.5 | 25 | 50 | 25 | 12.5 | 25 | 25 | 50 | 25 | 12.5 | 50
14 | PRT914 (DARTCGSLRCLNGGTCISGPRSPTCLCLGPFTGPECQ; listed as Homo sapiens) | 12.5 | 25 | 12.5 | 12.5 | 25 | 12.5 | 12.5 | 12.5 | 12.5 | 12.5 | 12.5
15 | PRT915 (ASSPCLGGNPCYNQGTCEPTSESPFYRCLCPAKFNGLLCH; listed as Homo sapiens) | 25 | 25 | 50 | 25 | 12.5 | 25 | 25 | 50 | 25 | 25 | 25
16 | PRT916 (QADPCASNPCANGGQCLPFEASYICHCPPSFHGPTCR; listed as Homo sapiens) | 25 | 12.5 | 50 | 25 | 12.5 | 50 | 25 | 12.5 | 25 | 50 | 12.5
17 | PRT917 (DVNECGQKPGLCRHGGTCHNEVGSYRCVCRATHTGPNCE; listed as Homo sapiens) | 25 | 50 | 12.5 | 25 | 50 | 25 | 12.5 | 50 | 25 | 25 | 25
18 | PRT919 (NIDDCPGNNCKNGGACVDGVNTYNCRCPPEWTGQYCT; listed as Homo sapiens) | 50 | 12.5 | 50 | 12.5 | 25 | 50 | 25 | 12.5 | 25 | 25 | 50
19 | PRT920 (DVDECQLMPNACQNGGTCHNTHGGYNCVCVNGWTGEDCS; listed as Homo sapiens) | 12.5 | 25 | 25 | 50 | 12.5 | 25 | 50 | 12.5 | 50 | 12.5 | 50
